What was measured:
Test in all cases: Minimal inhibitory concentration (MIC), CLSI procedures
Type in all cases: cell-based
[1] = test system: Staphylococcus aureus
Protocol: (§1) The combination of aqueous solutions of 50 mM glutathione and 50 mM silver carbene complex SCC22 at ambient conditions in a 1:1.25 ratio (final concentration 20 mM glutathione and 25 mM SCC22) results in a colorless hydrogel material. The gel was tested to determine its minimal inhibitory concentration (MIC) on three bacterial species including Pseudomonas aeruginosa, Staphylococcus aureus, and Escherichia coli using procedures published by the Clinical and Laboratory Standards Institute. The combination of aqueous solutions of 50 mM glutathione and 50 mM silver carbene complex SCC1 at ambient conditions in a 1:1.67 ratio (final concentration 15 mM glutathione and 25 mM SCC1) results in a colorless hydrogel material. The gel was tested to determine its minimal inhibitory concentration (MIC) on three bacterial species including Pseudomonas aeruginosa, Staphylococcus aureus, and Escherichia coli using procedures published by the Clinical and Laboratory Standards Institute. The combination of aqueous solutions of 50 mM glutathione and 50 mM silver carbene complex SCC8 at ambient conditions in a 1:1.25 ratio (final concentration 20 mM glutathione and 25 mM SCC8) results in a colorless hydrogel material (GSH8). The gel was tested to determine its minimal inhibitory concentration (MIC) on three bacterial species including Pseudomonas aeruginosa, Staphylococcus aureus, and Escherichia coli using procedures published by the Clinical and Laboratory Standards Institute.

[2] = test system: Escherichia coli
Protocol: as §1

[3] = test system: Pseudomonas aeruginosa
Protocol: as §1

NC[C@H]1O[C@H](O[C@H]2[C@H](O)[C@@H](O[C@H]3O[C@H](CO)[C@@H](O)[C@H](N)[C@H]3O)[C@H](N)C[C@@H]2N)[C@H](N)C[C@@H]1O [Tobramycin]
4 µg/mL: MIC S. aureus [1] | MIC E. coli [2] | MIC P. aeruginosa [3]
